Columns and labels:
[1] = target: T1, Tyrosine-protein kinase receptor TYRO3 (Homo sapiens) (UniProt Q06418); test: Residual activity of TYRO3 at 10 uM by microplate scintillation counting
T1 sequence (whole entry): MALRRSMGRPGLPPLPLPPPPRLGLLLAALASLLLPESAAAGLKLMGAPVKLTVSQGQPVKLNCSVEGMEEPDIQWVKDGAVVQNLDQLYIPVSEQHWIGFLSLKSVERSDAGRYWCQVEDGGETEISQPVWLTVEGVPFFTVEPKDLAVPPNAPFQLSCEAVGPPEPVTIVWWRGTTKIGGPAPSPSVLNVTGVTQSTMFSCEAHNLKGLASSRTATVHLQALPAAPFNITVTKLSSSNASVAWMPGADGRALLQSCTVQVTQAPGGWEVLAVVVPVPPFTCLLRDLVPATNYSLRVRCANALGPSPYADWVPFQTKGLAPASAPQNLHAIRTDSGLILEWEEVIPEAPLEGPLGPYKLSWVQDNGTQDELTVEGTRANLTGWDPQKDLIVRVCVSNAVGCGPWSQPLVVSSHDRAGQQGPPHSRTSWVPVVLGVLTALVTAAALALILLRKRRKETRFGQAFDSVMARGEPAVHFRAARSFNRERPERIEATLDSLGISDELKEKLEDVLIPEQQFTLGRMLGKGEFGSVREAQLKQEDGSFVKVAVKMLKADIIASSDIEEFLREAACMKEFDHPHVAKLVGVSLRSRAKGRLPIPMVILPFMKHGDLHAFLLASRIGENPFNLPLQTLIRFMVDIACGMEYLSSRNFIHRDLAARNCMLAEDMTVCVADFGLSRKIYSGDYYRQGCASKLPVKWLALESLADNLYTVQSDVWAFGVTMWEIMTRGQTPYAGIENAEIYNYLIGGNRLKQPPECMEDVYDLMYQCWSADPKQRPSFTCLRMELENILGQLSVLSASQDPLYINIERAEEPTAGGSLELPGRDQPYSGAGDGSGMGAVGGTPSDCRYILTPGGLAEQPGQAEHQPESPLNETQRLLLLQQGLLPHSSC

[2] = target: T2, cGMP-dependent protein kinase 2 (Homo sapiens) (UniProt Q13237); test: Residual activity of PRKG2 at 1 uM by microplate scintillation counting
T2 sequence (whole entry): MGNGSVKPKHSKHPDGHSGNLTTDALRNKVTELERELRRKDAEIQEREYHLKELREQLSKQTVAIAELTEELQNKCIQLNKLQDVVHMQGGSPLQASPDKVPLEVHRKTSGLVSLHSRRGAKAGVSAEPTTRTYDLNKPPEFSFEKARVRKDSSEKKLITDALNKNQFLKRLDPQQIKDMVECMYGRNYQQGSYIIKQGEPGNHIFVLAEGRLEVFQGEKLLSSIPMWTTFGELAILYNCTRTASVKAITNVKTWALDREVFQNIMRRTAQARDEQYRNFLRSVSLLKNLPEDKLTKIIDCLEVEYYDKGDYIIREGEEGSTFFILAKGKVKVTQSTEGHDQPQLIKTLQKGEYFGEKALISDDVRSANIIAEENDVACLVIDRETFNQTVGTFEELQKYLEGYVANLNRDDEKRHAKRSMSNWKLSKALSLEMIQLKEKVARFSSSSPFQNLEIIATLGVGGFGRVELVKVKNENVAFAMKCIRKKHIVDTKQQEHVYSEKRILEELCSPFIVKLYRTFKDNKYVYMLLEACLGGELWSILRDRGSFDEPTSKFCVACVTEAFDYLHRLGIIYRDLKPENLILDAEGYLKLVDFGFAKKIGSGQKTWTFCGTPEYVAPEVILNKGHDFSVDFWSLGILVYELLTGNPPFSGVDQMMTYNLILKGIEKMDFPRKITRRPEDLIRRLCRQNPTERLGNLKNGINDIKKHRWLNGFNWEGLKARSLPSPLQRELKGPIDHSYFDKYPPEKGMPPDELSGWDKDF

[3] = target: T3, Inhibitor of nuclear factor kappa-B kinase subunit alpha (Homo sapiens) (UniProt O15111); test: Residual activity of IKKalpha at 0.1 uM by microplate scintillation counting
T3 sequence (whole entry): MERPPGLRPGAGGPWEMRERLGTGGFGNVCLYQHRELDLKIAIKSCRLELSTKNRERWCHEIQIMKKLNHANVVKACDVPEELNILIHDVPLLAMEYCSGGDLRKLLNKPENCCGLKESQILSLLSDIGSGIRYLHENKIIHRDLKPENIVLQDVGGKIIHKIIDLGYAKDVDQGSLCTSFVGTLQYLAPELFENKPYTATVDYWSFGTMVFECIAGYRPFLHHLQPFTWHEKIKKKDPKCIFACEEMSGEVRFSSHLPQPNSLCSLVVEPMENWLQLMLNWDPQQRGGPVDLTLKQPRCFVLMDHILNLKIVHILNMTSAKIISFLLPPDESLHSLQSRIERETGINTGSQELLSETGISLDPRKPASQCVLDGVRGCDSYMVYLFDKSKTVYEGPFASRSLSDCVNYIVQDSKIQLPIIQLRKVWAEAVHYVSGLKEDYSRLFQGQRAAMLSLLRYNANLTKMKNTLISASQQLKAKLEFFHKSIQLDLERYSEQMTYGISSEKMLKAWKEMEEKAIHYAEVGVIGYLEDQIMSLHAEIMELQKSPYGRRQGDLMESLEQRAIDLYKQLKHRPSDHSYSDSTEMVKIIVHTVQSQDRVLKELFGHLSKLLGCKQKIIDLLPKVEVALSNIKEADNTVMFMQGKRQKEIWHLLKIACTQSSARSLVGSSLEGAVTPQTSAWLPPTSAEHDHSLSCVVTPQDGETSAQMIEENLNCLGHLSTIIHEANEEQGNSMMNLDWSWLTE

[4] = target: Tyrosine-protein kinase SYK (Homo sapiens) (UniProt P43405); test: Residual activity of SYK at 1 uM by microplate scintillation counting
[5] = target: T4, Activin receptor type-1 (Homo sapiens) (UniProt Q04771); test: Residual activity of ACV-R1 at 1 uM by microplate scintillation counting
T4 sequence (whole entry): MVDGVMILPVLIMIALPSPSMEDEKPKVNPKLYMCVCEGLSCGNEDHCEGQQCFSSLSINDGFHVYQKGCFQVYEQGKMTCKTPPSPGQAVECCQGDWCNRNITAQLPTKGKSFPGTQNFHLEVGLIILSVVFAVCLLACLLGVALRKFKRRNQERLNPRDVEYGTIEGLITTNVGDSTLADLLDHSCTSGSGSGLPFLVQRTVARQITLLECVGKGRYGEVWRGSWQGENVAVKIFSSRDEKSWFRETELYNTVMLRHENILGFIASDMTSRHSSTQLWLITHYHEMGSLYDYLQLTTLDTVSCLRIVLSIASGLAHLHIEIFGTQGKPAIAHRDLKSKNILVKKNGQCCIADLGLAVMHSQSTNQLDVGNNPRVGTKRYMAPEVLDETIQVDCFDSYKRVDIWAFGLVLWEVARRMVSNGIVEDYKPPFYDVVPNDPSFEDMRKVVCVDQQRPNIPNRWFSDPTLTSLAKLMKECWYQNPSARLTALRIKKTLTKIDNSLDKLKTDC

| residual activity [1] [%] | residual activity [2] [%] | residual activity [3] [%] | residual activity [4] [%] | residual activity [5] [%] | Compound |
| --- | --- | --- | --- | --- | --- |
| 120 | 84 | 89 | 97 | 85 | COc1cc2c(Oc3ccc(-c4nc5ccccc5s4)cc3)ncnc2cc1OCCCN1CCCC1 |
| 84 | 96 | 87 | 95 | 89 | COc1cc2c(Oc3ccc(-c4nc5ccccc5s4)cc3)ncnc2cc1OCCCN1CCN(C)CC1 |
| 17 | 85 | 81 | 102 | 93 | COc1cc2c(Oc3ccc(-c4nc5ccccc5s4)cc3F)ncnc2cc1OCCCN1CCN(C)CC1 |

— ChEMBL document CHEMBL1152560, “Substituted 2-arylbenzothiazoles as kinase inhibitors: hit-to-lead optimization” (Bioorg Med Chem, 2009)
